Reference: patent US7592436B2, “Gene encoding a protein having aurone synthesis activity” (International Flower Developments Proprietary Limited, priority 1998, dated 2009)

Columns and labels:
aurone synthase = test: Measurement of aurone synthase activity (HPLC); format: biochemical, snapdragon; details: for Conversion of substrate to aureusidin by purified aurone synthase: product confirmed by HPLC analysis
Method: The reaction was started by adding 5 μl of THC, having an absorbance of 462 at 366 nm in ethanol, to 50 μl of 1 M sodium acetate buffer (pH 5.0) and 350 μl of crude enzyme solution diluted with water. After allowing to react for 1 hour at 30° C., and adding 100 μl of an aqueous solution of 90% (v/v) acetonitrile containing 1% (v/v) TFA to stop the reaction, activity was measured by HPLC. The crude enzyme solution in each purification step described later in Example 4 was measured.
The YMC J'Sphere ODS M80 column (4.6×150 mm) was used and the flow rate was set at 0.7 ml/min. Using a 0.1% aqueous solution of TFA as solvent A, and a 90% aqueous solution of acetonitrile containing 0.1% TFA as solvent B, a sample was injected into the column, after which the ratio of A:B was held at 7:3 for first 3 minutes, and then changed to 6:4 by a linear concentration gradient for next 10 minutes. This concentration was maintained for 5 minutes. After changing the ratio of A:B to 7:3 for next one minute, this concentration was maintained for 5 minutes.

tyrosinase = test: Aurone synthesis activity of tyrosinase; format: biochemical, Neurospora; details: HPLC
Method: After mixing tyrosinase (Sigma catalog no. T7755; 0.04 mg/ml, 10 μl), 0.1 M sodium phosphate buffer (pH 6.5, 335 μl), 9% CHAPS (20 μl) and milli-Q water (20 μl), the mixture was incubated for 10 minutes at 30° C., followed by the addition of tetrahydroxychalcone (THC, 4.3 mM in ethanol, 15 μl), stirring immediately and reacting for 30 minutes at 30° C. After reaction, 100 μl of reaction stopping solution (10% trifluoroacetate solution containing 90% acetonitrile) was added to the reaction mixture to stop the reaction, followed by HPLC analysis. Analysis was performed in the same manner as described in Example 3. Water was used instead of tyrosinase as a control.
In addition, the reaction was carried out under the same conditions using pentahydroxychalcone (PHC) instead of THC as a substrate, and using 0.116 M sodium citrate phosphate buffer (pH 5.4) as a buffer. Similarly, water was used instead of tyrosinase as a control.

SMILES | Conversion of substrate to aureusidin by purified aurone synthase (aurone synthase) | Reaction product formed from substrate by tyrosinase (tyrosinase; 0.1 M sodium phosphate buffer pH 6.5, 30 minutes at 30° C.) | Change of enzyme activity on addition (aurone synthase; hydrogen peroxide added) | Reaction product formed from substrate by tyrosinase (tyrosinase; 0.116 M sodium citrate phosphate buffer pH 5.4, 30 minutes at 30° C.)
O=C(/C=C/c1ccc(O)cc1)c1c(O)cc(O)cc1O [THC, tetrahydroxychalcone] | converts both THC and pentahydroxychalcone to aureusidin | reaction product aureusidin |  | 
OO [hydrogen peroxide] |  |  | activity increased somewhat | 
O=C(/C=C/c1ccc(O)c(O)c1)c1c(O)cc(O)cc1O [pentahydroxychalcone] | converts both THC and pentahydroxychalcone to aureusidin |  |  | reaction product aureusidin
